From ChEMBL document CHEMBL1127907, “Design of a potent 5-HT4 receptor agonist with nanomolar affinity” (Bioorg Med Chem Lett, 1994)

Legend:
[1] = biological target: 5-hydroxytryptamine receptor 4 (Cavia porcellus) (UniProt O70528); experiment: 5-hydroxytryptamine 4 receptor agonist activity as percent maximum 5-HT effect in response to electrical stimulation in male guinea pig ileum; format: functional, tissue-based
[2] = biological target: T1, 5-hydroxytryptamine receptor 4 (Cavia porcellus, UniProt O70528); experiment: 5-hydroxytryptamine 4 receptor agonist activity as increased response to electrical stimulation in guinea pig ileum; format: functional, tissue-based
T1 sequence (O70528 whole entry): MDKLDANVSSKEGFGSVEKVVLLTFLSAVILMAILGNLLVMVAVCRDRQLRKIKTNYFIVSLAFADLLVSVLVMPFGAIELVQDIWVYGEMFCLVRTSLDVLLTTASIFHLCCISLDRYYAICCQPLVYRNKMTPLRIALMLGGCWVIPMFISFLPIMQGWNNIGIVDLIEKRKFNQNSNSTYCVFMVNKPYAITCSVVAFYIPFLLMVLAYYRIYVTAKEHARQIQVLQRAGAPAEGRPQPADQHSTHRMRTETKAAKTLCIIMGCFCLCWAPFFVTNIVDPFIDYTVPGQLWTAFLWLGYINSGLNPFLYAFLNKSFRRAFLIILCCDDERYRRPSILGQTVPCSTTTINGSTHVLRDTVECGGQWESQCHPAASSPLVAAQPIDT

[3] = biological target: T2, 5-hydroxytryptamine receptor 4 (Rattus norvegicus, UniProt Q62758); experiment: Binding affinity against 5-hydroxytryptamine 4 receptor using [3H]GR-113808 as radioligand in rat striatum; format: tissue-based
T2 sequence (Q62758 whole entry): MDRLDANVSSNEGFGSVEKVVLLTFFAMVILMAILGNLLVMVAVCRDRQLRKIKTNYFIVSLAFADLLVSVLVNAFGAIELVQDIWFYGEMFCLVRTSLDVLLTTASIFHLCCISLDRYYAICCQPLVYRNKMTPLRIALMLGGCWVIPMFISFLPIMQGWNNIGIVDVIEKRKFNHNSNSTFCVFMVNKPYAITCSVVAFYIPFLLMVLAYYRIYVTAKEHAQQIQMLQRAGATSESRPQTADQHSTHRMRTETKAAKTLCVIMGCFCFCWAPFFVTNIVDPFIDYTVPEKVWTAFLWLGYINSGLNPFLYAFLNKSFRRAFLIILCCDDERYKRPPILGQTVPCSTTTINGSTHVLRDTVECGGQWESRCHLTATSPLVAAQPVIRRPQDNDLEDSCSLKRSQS

[4] = biological target: T3, Serotonin 3 (5-HT3) receptor (Rattus norvegicus, UniProt P35563+Q9JJ16); experiment: Binding affinity against 5-hydroxytryptamine 3 receptor using [3H]BRL-43694 in rat posterior cortex; format: tissue-based
T3 sequence (P35563 whole entry): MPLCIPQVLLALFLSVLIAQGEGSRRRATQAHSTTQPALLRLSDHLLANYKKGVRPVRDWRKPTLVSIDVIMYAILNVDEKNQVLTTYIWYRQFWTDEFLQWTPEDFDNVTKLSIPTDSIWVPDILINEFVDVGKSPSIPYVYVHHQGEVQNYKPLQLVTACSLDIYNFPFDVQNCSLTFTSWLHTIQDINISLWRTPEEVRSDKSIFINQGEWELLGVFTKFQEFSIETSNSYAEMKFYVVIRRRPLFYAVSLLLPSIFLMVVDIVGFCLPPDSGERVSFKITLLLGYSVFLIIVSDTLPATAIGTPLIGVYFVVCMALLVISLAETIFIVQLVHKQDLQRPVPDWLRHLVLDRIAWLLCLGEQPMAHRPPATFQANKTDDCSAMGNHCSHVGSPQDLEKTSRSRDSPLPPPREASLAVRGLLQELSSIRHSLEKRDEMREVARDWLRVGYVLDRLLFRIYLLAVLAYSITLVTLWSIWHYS
T3 sequence (Q9JJ16 whole entry): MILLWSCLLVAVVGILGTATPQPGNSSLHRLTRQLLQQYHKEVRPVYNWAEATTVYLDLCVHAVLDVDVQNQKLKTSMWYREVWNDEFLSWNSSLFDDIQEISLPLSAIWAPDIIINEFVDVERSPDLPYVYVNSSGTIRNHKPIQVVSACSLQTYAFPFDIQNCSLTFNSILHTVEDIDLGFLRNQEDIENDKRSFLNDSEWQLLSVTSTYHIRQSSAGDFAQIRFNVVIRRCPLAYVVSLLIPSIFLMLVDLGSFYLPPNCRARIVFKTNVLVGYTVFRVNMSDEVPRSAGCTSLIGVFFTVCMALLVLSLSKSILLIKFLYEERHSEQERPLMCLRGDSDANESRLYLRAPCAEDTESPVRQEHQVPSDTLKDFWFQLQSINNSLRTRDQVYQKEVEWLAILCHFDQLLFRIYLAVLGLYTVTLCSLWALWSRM

[5] = biological target: T1, 5-hydroxytryptamine receptor 4; experiment: 5-hydroxytryptamine 4 receptor antagonist activity expressed as the concentration which produced a 50% reduction of 5-HT induced contraction in guinea pig ileum; Not evaluable; format: functional, tissue-based
[6] = biological target: T2, 5-hydroxytryptamine receptor 4; experiment: 5-hydroxytryptamine 4 receptor agonist activity was determined by the relaxation of the carbachol-contracted rat esophageal tunica muscularis mucosae; format: functional
[7] = biological target: T1, 5-hydroxytryptamine receptor 4; experiment: 5-hydroxytryptamine 4 receptor antagonist activity expressed as the concentration which produced a 50% reduction of 5-HT induced contraction in guinea pig ileum; format: functional, tissue-based

Chain of 5-hydroxytryptamine receptor 4 (Cavia porcellus) (O70528 whole entry): as the sequence (O70528 whole entry) above

Row | SMILES | Activity [1] [%] | EC50 [2] [µM] | Ki [3] [µM] | Ki [4] [µM] | IC50 [5] [µM] | IC50 [6] [µM] | IC50 [7] [µM]
1 | NCCc1c[nH]c2ccc(O)cc12 | 100 | – | – | – | – | – | –
2 | CCN1CCCC(OC(=O)c2cc(Cl)c(N)cc2OC)C1 (centres undefined) | 79 | 0.044 | 0.0345 | – | – | – | –
3 | CCN1CCC(OC(=O)c2cc(Cl)c(N)cc2OC)CC1 | 60 | 0.022 | 0.0103 | 0.118 | – | – | –
4 | CCN(CC)CCOC(=O)c1cc(Cl)c(N)cc1OC | – | > 1 | 0.0053 | 0.205 | 0.077 | – | –
5 | COc1cc(N)c(Cl)cc1C(=O)OC1CC2CCC(C1)N2C (centres undefined) | 54 | 0.027 | 0.0643 | 0.0032 | – | – | –
6 | COc1cc(N)c(Cl)cc1C(=O)OCCN1CCCCC1 | 80 | – | 0.00107 | 0.782 | – | 0.0024 | –
7 | CCN(CC)CCNC(=O)c1cc(Cl)c(N)cc1OC [METOCLOPRAMIDE] | – | – | – | 0.443 | – | – | –
8 | COc1cc(N)c(Cl)cc1C(=O)NC1CN2CCC1CC2 (centres undefined) [ZACOPRIDE] | – | 0.26 | 0.753 | 0.0007 | – | – | –
9 | COc1cc(N)c(Cl)cc1C(=O)OC1CCN(C)CC1 | 53 | 0.11 | 0.023 | 0.072 | – | – | 0.06
